Drawing on article PMC11975047, “Antiproliferative effects, mechanism of action and tumor reduction studies in a lung cancer xenograft mouse model of an organometallic gold(I) alkynyl complex” (RSC Medicinal Chemistry, 2025), this text covers IC50 for two compounds.

Test [1] addresses T1, thioredoxin reductase (TrxR), rat liver (Rattus norvegicus, UniProt O89049).
T1 construct: gene Txnrd1
The experiment in a line: DTNB reduction assay with purified rat liver TrxR, reference inhibitor.

In test [2] the target is T1, thioredoxin reductase (TrxR), rat liver. The experiment in a line: DTNB reduction assay with purified rat liver TrxR, […] min preincubation, […] nm.

T1 sequence (O89049 whole entry): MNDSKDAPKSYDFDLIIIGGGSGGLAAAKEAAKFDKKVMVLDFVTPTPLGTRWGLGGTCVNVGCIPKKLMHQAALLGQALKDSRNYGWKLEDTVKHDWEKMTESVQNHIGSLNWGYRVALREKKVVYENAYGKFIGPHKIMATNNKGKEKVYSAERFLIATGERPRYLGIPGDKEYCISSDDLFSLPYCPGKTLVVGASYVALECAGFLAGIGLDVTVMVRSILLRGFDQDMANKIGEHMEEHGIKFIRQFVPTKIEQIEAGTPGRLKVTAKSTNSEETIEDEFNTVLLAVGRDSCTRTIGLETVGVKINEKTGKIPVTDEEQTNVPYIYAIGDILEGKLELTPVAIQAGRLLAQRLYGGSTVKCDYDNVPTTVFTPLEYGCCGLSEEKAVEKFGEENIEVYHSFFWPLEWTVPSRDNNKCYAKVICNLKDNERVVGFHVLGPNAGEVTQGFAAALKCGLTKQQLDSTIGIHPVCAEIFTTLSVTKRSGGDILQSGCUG

As for `CC[P](CC)(CC)=[Au][S][C@@H]1O[C@H](COC(C)=O)[C@@H](OC(C)=O)[C@H](OC(C)=O)[C@H]1OC(C)=O` [AF, Auranofin], the IC50 in test [1] came out at 30 nM.
On to `CC[P+](CC)(CC)[Au-][C]#Cc1ccc(OC)cc1` [compound 1, complex 1], for which the half-inhibitory concentration (IC50) in test [2] is 50 ± 10 nM.
